For data set [1], the target named is T1, CYP1A2 (Homo sapiens, UniProt P05177).
T1 sequence (P05177 1-516): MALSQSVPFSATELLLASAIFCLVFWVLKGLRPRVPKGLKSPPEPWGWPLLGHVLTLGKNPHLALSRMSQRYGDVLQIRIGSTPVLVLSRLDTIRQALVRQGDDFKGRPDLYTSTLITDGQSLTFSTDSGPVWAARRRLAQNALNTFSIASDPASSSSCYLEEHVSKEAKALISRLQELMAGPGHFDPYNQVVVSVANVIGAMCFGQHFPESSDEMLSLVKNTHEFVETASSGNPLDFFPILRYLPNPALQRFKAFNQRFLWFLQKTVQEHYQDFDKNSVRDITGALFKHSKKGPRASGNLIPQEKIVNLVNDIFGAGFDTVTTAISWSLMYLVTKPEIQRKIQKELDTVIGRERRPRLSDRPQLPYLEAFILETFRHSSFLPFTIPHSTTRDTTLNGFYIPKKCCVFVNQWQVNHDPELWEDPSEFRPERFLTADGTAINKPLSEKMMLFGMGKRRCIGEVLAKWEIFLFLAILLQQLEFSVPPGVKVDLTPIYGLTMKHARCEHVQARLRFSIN
Description: in vitro.

For a further data set, the target named is T2, CYP2B6 (Homo sapiens, UniProt P20813).
T2 sequence (P20813 1-491): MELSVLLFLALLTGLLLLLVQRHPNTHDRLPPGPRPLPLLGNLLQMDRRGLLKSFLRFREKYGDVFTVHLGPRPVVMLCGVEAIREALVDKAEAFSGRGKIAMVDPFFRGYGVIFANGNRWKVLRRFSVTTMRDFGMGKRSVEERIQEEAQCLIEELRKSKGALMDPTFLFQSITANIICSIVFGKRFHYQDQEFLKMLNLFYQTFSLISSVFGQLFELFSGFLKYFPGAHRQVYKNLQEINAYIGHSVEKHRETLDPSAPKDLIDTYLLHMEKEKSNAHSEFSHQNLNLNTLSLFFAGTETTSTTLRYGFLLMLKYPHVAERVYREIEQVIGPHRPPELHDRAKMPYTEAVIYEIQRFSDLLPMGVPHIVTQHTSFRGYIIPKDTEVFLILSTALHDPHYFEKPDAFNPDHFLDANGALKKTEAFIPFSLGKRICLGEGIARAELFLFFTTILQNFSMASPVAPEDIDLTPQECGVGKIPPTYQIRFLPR
The data set can be described thus: in vitro.

The target in the next data set is CYP4B1 (Oryctolagus cuniculus, UniProt P15128). Description: in vitro.
Chain of CYP4B1 (P15128 whole entry): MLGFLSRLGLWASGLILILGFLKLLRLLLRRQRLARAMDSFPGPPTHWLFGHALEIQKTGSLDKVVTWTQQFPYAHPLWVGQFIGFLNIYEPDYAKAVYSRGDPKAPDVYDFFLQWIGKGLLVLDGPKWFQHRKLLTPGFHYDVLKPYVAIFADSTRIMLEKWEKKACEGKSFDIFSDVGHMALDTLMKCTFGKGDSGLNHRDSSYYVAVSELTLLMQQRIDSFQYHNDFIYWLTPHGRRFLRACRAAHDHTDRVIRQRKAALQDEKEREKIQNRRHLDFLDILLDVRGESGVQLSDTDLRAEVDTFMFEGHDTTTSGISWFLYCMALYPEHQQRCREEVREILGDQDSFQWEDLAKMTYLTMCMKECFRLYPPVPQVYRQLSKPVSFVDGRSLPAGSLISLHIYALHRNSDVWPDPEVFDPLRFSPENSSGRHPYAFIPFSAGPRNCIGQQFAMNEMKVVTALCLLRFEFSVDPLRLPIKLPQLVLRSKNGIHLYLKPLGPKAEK
The test system of another data set is CYP. Description: Experimental product ratios for aromatic oxidation. Conditions: Arom/benz. The source says:
These equations may be solved with the data in Table 4, which provides experimental data for aromatic oxidation reactions with a number of substrates.
Experimental metabolite ratios may also be used to parameterize the aromatic oxidation reaction in a theoretical model for CYP reactions. As with hydrogen atom abstraction discussed in the previous Examples, experimental ratios of aromatic oxidation to an alternate position may be determined using various CYP enzymes. These substrates were chosen based on their small size, the presence of an alternate position for metabolism, and their hydrophobicity.
In order for the substrates to be useful, the average of the rotation rates in the active sites should be rapid. […] Several human expressed CYP enzymes were used in these studies, including CYP1A1, 1A2, 2A6, 2B6, 2C8, 2C9, 2D6, 2E1, 3A4, and 3A5. The use of multiple enzymes insures that a reasonable average of any orientation preferences within the active site (see FIG. 1).

For data set [2], the target named is T3, CYP2C8 (Homo sapiens, UniProt P10632).
T3 sequence (P10632 1-490): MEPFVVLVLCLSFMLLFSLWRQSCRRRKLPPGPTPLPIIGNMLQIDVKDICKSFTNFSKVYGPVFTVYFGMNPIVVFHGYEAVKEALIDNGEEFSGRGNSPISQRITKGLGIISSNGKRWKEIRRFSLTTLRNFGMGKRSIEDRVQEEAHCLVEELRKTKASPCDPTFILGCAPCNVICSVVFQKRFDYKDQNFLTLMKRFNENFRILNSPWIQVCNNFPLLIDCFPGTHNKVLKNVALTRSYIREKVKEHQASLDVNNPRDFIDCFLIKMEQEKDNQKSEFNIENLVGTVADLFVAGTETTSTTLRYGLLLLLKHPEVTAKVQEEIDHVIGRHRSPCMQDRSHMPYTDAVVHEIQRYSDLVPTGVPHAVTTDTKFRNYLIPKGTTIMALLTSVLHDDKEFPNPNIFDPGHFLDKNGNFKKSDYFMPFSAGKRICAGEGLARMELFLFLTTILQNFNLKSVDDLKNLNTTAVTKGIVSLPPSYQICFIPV
Description: in vitro. Conditions: pH 7.4.

Data set [3] has as its target T1, CYP1A2. Description: Regioselectivity and inter-/intramolecular KIE for 4-methylanisole (Table 15). It is filed as in vitro ADME.
Data set [4] has as its target T3, CYP2C8. Described as above. The format is in vitro ADME.
The next data set concerns the target CYP3A4 (Homo sapiens, UniProt P08684). Described as above. It is filed as in vitro ADME.
In another data set the test system is various CYP enzymes. Conditions: mean over seven enzymes.
The target in a further data set is T4, P450cam (Pseudomonas putida, UniProt P00183).
T4 construct: made in house
T4 sequence (P00183 2-415): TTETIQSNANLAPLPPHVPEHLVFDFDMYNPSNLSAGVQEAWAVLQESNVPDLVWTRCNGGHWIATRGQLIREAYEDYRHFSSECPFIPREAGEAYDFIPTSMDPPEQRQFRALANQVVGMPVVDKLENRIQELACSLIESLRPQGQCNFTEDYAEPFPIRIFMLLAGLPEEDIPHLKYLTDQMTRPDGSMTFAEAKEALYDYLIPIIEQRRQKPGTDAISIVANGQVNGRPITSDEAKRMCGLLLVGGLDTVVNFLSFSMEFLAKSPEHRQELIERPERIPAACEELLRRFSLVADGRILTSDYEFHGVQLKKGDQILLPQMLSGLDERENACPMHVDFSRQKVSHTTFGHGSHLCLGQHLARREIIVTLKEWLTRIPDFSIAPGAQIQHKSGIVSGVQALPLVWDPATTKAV
Description: Intramolecular isotope effects with purified P450cam. The format is in vitro ADME, bacterial. Conditions: benzylic hydroxylation, -CH2D (d1) substrate. As for the experimental part:
For the intramolecular isotope effect experiments herein, a substrate is chosen that contains at least two symmetrical sites, with at least one site, but not all, isotopically labeled. A single concentration of substrate is incubated with enzyme, and the ratio of labeled to unlabeled compound in the isotopic mixture of products (or the corresponding rates of formation of products) are used to calculate a KIE.
Construction of expression plasmids for P450cam, Pd, and PdR as well as protein expression and purification have been described previously (Shimoji et al. (1998) Biochemistry 37, 8848-52).
Enzyme incubations with monodeuterated toluenes and p-xylene-α-^2H1-α′-^2H1 were performed in triplicate at a single substrate concentration of 0.25 mM. […] The kinetic parameters for metabolism of the substituted toluenes were determined by GC-MS analysis of the M-(dimethylsilyl) derivative of the product benzyl alcohols (see below).

[5] abbreviates: pH 7.4, Regioselectivity BzH:Arom.
The mark [6] stands for this setting: pH 7.4, Regioselectivity BzH:ODAlk.

Molecules are shown by their SMILES.

These results are taken from US6643591B1, “Use of computational and experimental data to model organic compound reactivity in cytochrome P450 mediated reactions and to optimize the design of pharmaceuticals” (University of Pittsburgh, priority 1998, dated 2003).

Chain of CYP3A4 (P08684 whole entry): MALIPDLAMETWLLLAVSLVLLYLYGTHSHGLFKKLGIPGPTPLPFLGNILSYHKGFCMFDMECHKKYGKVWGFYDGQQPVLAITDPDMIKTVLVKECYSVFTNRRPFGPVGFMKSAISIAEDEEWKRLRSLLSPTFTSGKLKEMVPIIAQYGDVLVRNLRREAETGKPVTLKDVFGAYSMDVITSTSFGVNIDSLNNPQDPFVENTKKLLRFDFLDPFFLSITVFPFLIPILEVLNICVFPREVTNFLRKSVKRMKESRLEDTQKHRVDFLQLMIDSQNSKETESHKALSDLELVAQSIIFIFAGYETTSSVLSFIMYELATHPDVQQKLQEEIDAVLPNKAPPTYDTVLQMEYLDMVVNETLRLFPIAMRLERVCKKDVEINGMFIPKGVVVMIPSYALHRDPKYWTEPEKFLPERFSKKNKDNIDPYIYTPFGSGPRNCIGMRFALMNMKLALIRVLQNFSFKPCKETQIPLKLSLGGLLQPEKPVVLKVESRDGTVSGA

With `COc1ccccc1C` [o-Methylanisole, o-methylanisole], the selectivity ratio turned out to be 0.63 on CYP1A2 [1] (setting [5]); 2.9 at CYP1A2 [1] (setting [6]); 2 at CYP2B6 (setting [5]); 0.52 on CYP2B6 (setting [6]); 22 at CYP4B1 (setting [5]); 0.7 at CYP4B1 (setting [6]). Also, the selectivity ratio at CYP2C8 [2] is 1. In addition, the “Experimental Ratio” value in the data set with CYP came out at 1.76.
For the compound `COc1ccc(C)cc1` [p-Methylanisole, p-methylanisole], the results for the “Intermolecular KIE” value at CYP1A2 [3] (CYP1A2 (Table 15)), at CYP2C8 [4] (CYP2C8 (Table 15)) and at CYP3A4 (CYP3A4 (Table 15)) were 5.94, 3.60 and 2.76, respectively. Also, the results for the “Intramolecular KIE” value on CYP1A2 [3] (CYP1A2 (Table 15)), at CYP2C8 [4] (CYP2C8 (Table 15)) and on CYP3A4 (CYP3A4 (Table 15)) were 3.79, 3.60 and 5.27, respectively. Also, the “δΔG^†” value turned out to be 1.82 kcal/mol on CYP1A2 [3] (CYP1A2, benzylic oxidation vs O-dealkylation); 1.32 kcal/mol at CYP2C8 [4] (CYP2C8, benzylic oxidation vs O-dealkylation); 1.61 kcal/mol at CYP3A4 (CYP3A4, benzylic oxidation vs O-dealkylation). Also, the “Benzylic/O-Dealkylation, Mean” value with various CYP enzymes is 10.60 (5.85). Besides, the “Intermolecular KIE, Mean” value in the data set on various CYP enzymes was found to be 4.59. For the same compound, the “Intramolecular KIE, Mean” value in the data set on various CYP enzymes came to 4.20. For the same compound, on P450cam, the “Intramolecular KIE (kH/kD)” value stood at 4.44.
